The source of these data is patent US20120184438A1, “FORMULATIONS” (SYNGENTA CROP PROTECTION, LLC, priority 2009, published 2012).

The first data set can be described thus: Solubility of agrochemical active ingredients in Compound No. 1 (equilibrated 4 weeks at 25° C., supernatant analysed by GC/LC). The conditions noted are these: solvent Compound No. 1 (DEET), 4 weeks equilibration. The format is physicochemical. Here is the method:
The resultant sample was mixed with a Whirlimixer™ and was then stored at 25° C. The sample was checked every few days; if there was no solid active ingredient present then additional active ingredient was added; if there was no liquid remaining then additional solvent was added. This procedure was repeated until the sample had equilibrated for 4 weeks following the final addition of either active ingredient or solvent.
Regarding `CC(C1CC1)C(O)(Cn1cncn1)c1ccc(Cl)cc1` (stereo not drawn) [Cyproconazole], the “Solubility in Compound No. 1 at 25° C.” value was 33.4 % w/w.

Regarding `COCCOCc1nc(C(F)(F)F)ccc1C(=O)C1=C(O)C2CCC(C2)C1=O` (stereo not drawn) [4-Hydroxy-3-[2-(2-methoxyethoxymethyl)-6-trifluoromethylpyridine-3-carbonyl]-bicyclo[3.2.1]oct-3-en-2-one], the “Solubility in Compound No. 1 at 25° C.” value is 24.7 % w/w.

Consider `CO/C=C(/C(=O)OC)c1ccccc1Oc1cc(Oc2ccccc2C#N)ncn1` [Azoxystrobin], for which the “Solubility in Compound No. 1 at 25° C.” value came out at 11.3 % w/w.

Another data set is described as follows: Aqueous solubility of solvents. In kind it is physicochemical.
Conditions: not given
The source says:
(§1) This Example illustrates that Compound Number 1 is unusually effective at dissolving pesticides given that it has a water solubility which is low.
Consider Trimethylbenzene, for which the Aqueous solubility is reported as 0.1 % w/w.

The data set is the same for the next values; noted with them: solubility of the solvent in water.
Take `CC(=O)O[C@@H]1C[C@H]2CC[C@]1(C)C2(C)C` (racemic) [Isobornyl acetate]: the Aqueous solubility was 0.003 % w/w.

`CCN(CC)C(=O)c1cccc(C)c1` [Compound No. 1] gave an Aqueous solubility of 0.1 % w/w.

The compound `CCCCOC(=O)c1ccccc1` [n-Butylbenzoate] returned an Aqueous solubility of 0.1 % w/w.

In turn, `C[S+](C)[O-]` [DMSO] registered an Aqueous solubility of 100 % w/w.

Compound `CC(C)[C@@H]1CC[C@@H](C)CC1=O` [Menthone] registered an Aqueous solubility of 0.030 % w/w.

Compound `OCC1CCCO1` (stereo not drawn) [Tetrahydrofurfuryl alcohol] came in with an Aqueous solubility of 100 % w/w.

On to `CN1CCCC1=O` [N-Methyl pyrrolidone], for which the Aqueous solubility is 100 % w/w.

A further data set is described as follows: Pesticide (A.I.) solubility in several solvents at 25° C. The format is physicochemical.
Conditions: not given
Here is the method: A glass vial was approximately one eighth filled with an active ingredient [Al] and then solvent [in this example, Compound Number 1 from Table 1] was added until the vial was approximately one third full. The resultant sample was mixed with a Whirlimixer™ and was then stored at 25° C. The sample was checked every few days; if there was no solid active ingredient present then additional active ingredient was added; if there was no liquid remaining then additional solvent was added. This procedure was repeated until the sample had equilibrated for 4 weeks following the final addition of either active ingredient or solvent. The supernatent liquid layer was then analysed by gas chromatography [except for 4-hydroxy-3-[2-(2-methoxyethoxymethyl)-6-trifluoromethylpyridine-3-carbonyl]-bicyclo[3.2.1]oct-3-en-2-one which was analysed by liquid chromatography] for active ingredient concentration; the results are given in Table 2:
as §1
As for Trimethylbenzene, the “A.I. Solubility at 25° C., Azoxystrobin” value came to 1.7 % w/w and the “A.I. Solubility at 25° C., Cyproconazole” value is recorded as 5.8 % w/w.

`C[S+](C)[O-]` [DMSO]: the “A.I. Solubility at 25° C., Azoxystrobin” value came to 32.1 % w/w and the “A.I. Solubility at 25° C., Cyproconazole” value was determined as 55.5 % w/w.
